According to the NIST ThermoML archive (doi:10.1016/j.tca.2015.09.023):
Numbers after ± are expanded uncertainties.

Columns and labels:
[1] = Crystal; DTA
[2] = Molar enthalpy of transition or fusion; conditions: Crystal; DSC

SMILES	Normal melting temperature [1] [°C]	Molar enthalpy of transition or fusion [2] [kcal/mol]
CN1C(=O)N[C@@H]2NC(=O)N[C@@H]21 (racemic)	261.6 ± 0.4	8.15 ± 0.191
CN1C(=O)N[C@H]2[C@@H]1N(C)C(=O)N2C (racemic)	92.6 ± 0.4	4.8 ± 0.167
CN1C(=O)N[C@H]2[C@@H]1NC(=O)N2C (racemic)	277.1 ± 0.4	5.83 ± 0.167
